Measured values published in PubChem BioAssay AID2060894 (Molecular Pharmacology Branch, DTP, NCI, 2025).

System: K12877-001-R-J1-PDC complex spheroid viability
Experiment: Anticancer human tumor K12877-001-R-J1-PDC patient-derived lung adenocarcinoma cell line growth inhibition [RAS]
Conditions: for IC50: curve of first compound; for viability, T/C: stronger effect = lower value
Source text: RAS pathway inhibitors in Combinations in Complex Spheroids
A high-throughput screen of multi-cell type tumor spheroids was designed to identify active combinations of RAS pathway inhibitors and targeted small molecules. Complex spheroids include a stromal component modeled by human endothelial cells (HUVEC) and fibroblasts modeled by human mesenchymal stem cells (MSCs). The concentration ranges selected for each drug and investigational agent were based upon clinically achievable concentrations if the clinical Cmax of the agent was known.
Compounds. The drugs and investigational agents: abemaciclib (NSC768073), cobimetinib (NSC768068), divarasib (GDC6063, NSC841802), docetaxel (NSC628503), GDC-1971 (RLY-1971, NSC841576), gemcitabine (NSC613327), inavolisib (NSC800729), ipatasertib (NSC767898), KB-0742 (NSC834161), MRTX-1133 (NSC836407), osimertinib (NSC779217), RMC-4630 (NSC839698), RMC-6236 (NSC851965), RMC-6291 (NSC852671), Ro-3306 (NSC812927), sapanisertib (NSC764658), SN-38 (NSC673596), staurosporine (NSC755774), SY5609 (NSC837396), and tovorafenib (DAY101, NSC766906), were obtained from the National Cancer Institute (NCI) Developmental Therapeutics Program Chemical Repository. The FDA-approved anticancer drug set is available from the NCI Developmental Therapeutics Program. […] The stock solutions were prepared in dimethyl sulfoxide (DMSO, Sigma-Aldrich, St. Louis, MO, cat. D2650) at 800-fold the tested concentration and stored at -70 degrees C prior to their use. All drugs and investigational agents were tested over a range starting from a high concentration at or near the clinical Cmax and decreasing in half-log increments. If the clinical Cmax for an agent had not been determined, the highest concentration tested was 10 microM.
Cell Culture. All cells were maintained in an incubator at 37 degrees C and 5% CO2 with 95% humidity. The PDC lines were cultured according to standard operating procedures established by the NCI PDMR. All PDCs were thawed and cultured in Matrigel-coated flasks prepared with a working solution of 1X Ham's F-12 nutrient mix, without supplementation (Invitrogen, Waltham, MA, cat. 11765054), 100 U/mL penicillin-streptomycin (Invitrogen, cat. 15140122), and 2.5% Matrigel (Corning Inc., Corning, NY, cat. 354248) for the first three passages. The 362531-283-R-J2-PDC and 782815-120-R-J1-PDC lines were cultured in 6C/Colon 1B media, which includes advanced DMEM/F-12 (Thermo Fisher Scientific, cat. 12634028), 10 mM HEPES (Thermo Fisher Scientific, cat. 15630080), 1X GlutaMAX supplement (Thermo Fisher Scientific, cat. 35050061), 0.1 mg/mL primocin (InvivoGen, San Diego, CA, cat. ant-pm-2), 10% defined fetal bovine serum, heat inactivated (HyClone Laboratories Inc., Logan, UT, cat. SH30070.03HI), 50% L-WRN conditioned media (ATCC, cat. CRL-3276), 1.25 mM N-Acetyl-L-cysteine (Sigma-Aldrich, cat. A9165), 10 mM nicotinamide (Sigma-Aldrich, cat. N0636), 1X B-27 supplement (Thermo Fisher Scientific, cat. 17504044), 1X N-2 supplement (Thermo Fisher Scientific, cat. 17502048), 50 ng/mL human EGF (Thermo Fisher Scientific, cat. PHG0311), and 10 microM Y-27632 dihydrochloride (Tocris Bioscience, cat. 1254). The K12877-001-R-J1-PDC line was cultured in 6I media, which includes all 6C/Colon 1B media plus 10 ng/mL human FGF-10 (PeproTech, cat. 100-26), 1 ng/mL human FGF-2 (PeproTech, cat. 100-18B), 1 µM prostaglandin E2 (Tocris Bioscience, cat. 2296), […] hydrocortisone (Sigma-Aldrich, cat. H4001), and […] bovine insulin (Sigma-Aldrich, cat. I6634). The K86415-001-R-J1-PDC line was cultured in 6D media, which includes all 6C/Colon 1B media components minus the L-WRN conditioned media. The 485176-168-R4-J1-PDC was cultured in PANC media, which includes all 6C/Colon 1B media plus 100 ng/mL human FGF-10 (PeproTech, cat. 100-26), 500 nM SB-431542 (Selleckchem, cat. S1067), and 10 nM gastrin (Tocris Bioscience, cat. 3006). […]

[1] = second compound 0.000949 µM, first compound 0.0316 µM
[2] = second compound 0.000949 µM, first compound 0.1 µM
[3] = second compound 0.000949 µM, first compound 0.316 µM
[4] = second compound 0.000949 µM, first compound 1 µM
[5] = second compound 0.003 µM, first compound 0.0316 µM
[6] = second compound 0.003 µM, first compound 0.1 µM
[7] = second compound 0.003 µM, first compound 0.316 µM
[8] = second compound 0.003 µM, first compound 1 µM
[9] = second compound 0.00949 µM, first compound 0.0316 µM
[10] = second compound 0.00949 µM, first compound 0.1 µM
[11] = second compound 0.00949 µM, first compound 0.316 µM
[12] = second compound 0.00949 µM, first compound 1 µM
[13] = second compound 0.03 µM, first compound 0.0316 µM
[14] = second compound 0.03 µM, first compound 0.1 µM
[15] = second compound 0.03 µM, first compound 0.316 µM
[16] = second compound 0.03 µM, first compound 1 µM
[17] = second compound 0.0949 µM, first compound 0.0316 µM
[18] = second compound 0.0949 µM, first compound 0.1 µM
[19] = second compound 0.0949 µM, first compound 0.316 µM
[20] = second compound 0.0949 µM, first compound 1 µM
[21] = second compound 0.3 µM, first compound 0.0316 µM
[22] = second compound 0.3 µM, first compound 0.1 µM
[23] = second compound 0.3 µM, first compound 0.316 µM
[24] = second compound 0.3 µM, first compound 1 µM
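Also: spheroids exposed to agents for one week before readout.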

In the case of O=C(c1ccc(F)c(F)c1Nc1ccc(I)cc1F)N1CC(O)([C@@H]2CCCCN2)C1 + CCn1c(-c2cc(N3CCN(C)CC3)cnc2C(C)OC)c2c3cc(ccc31)-c1csc(n1)CC(NC(=O)C1CC1C)C(=O)N1CCCC(N1)C(=O)OCC(C)(C)C2, the IC50 (second compound 0.000949 µM) is reported as > 1000 nM, the IC50 (second compound 0.003 µM) is reported as > 1000 nM and the IC50 (second compound 0.00949 µM) is reported as > 1000 nM. The IC50 (second compound 0.03 µM) was 508 nM, the IC50 (second compound 0.0949 µM) was 98.8 nM and the IC50 (second compound 0.3 µM) was 58.5 nM. It also gave a viability, T/C (second compound 0.000949 µM, first compound 0.00316 µM) of 79.6%, a viability, T/C (second compound 0.000949 µM, first compound 0.01 µM) of 71.2% and a viability, T/C [1] of 66%. For the same molecule, the viability, T/C [2] was 57.9%, the viability, T/C [3] was 71.4% and the viability, T/C [4] was 56%. For the same molecule, the viability, T/C (second compound 0.003 µM, first compound 0.00316 µM) was 71.4%, the viability, T/C (second compound 0.003 µM, first compound 0.01 µM) was 66.6% and the viability, T/C [5] was 68.1%. It also gave a viability, T/C [6] of 79%, a viability, T/C [7] of 82.6% and a viability, T/C [8] of 60.5%. It also gave a viability, T/C (second compound 0.00949 µM, first compound 0.00316 µM) of 71.3%, a viability, T/C (second compound 0.00949 µM, first compound 0.01 µM) of 65.8% and a viability, T/C [9] of 82%. The viability, T/C [10] was 91.3%, the viability, T/C [11] was 80.7% and the viability, T/C [12] was 53.5%. The viability, T/C (second compound 0.03 µM, first compound 0.00316 µM) was 110%, the viability, T/C (second compound 0.03 µM, first compound 0.01 µM) was 105% and the viability, T/C [13] was 98.9%. The viability, T/C [14] was 72.6%, the viability, T/C [15] was 59.4% and the viability, T/C [16] was 40%. The viability, T/C (second compound 0.0949 µM, first compound 0.00316 µM) was 92.7%, the viability, T/C (second compound 0.0949 µM, first compound 0.01 µM) was 90.4% and the viability, T/C [17] was 77.8%. For the same molecule, the viability, T/C [18] was 50.3%, the viability, T/C [19] was 29% and the viability, T/C [20] was 25.6%. It also gave a viability, T/C (second compound 0.3 µM, first compound 0.00316 µM) of 80.2%, a viability, T/C (second compound 0.3 µM, first compound 0.01 µM) of 74.9% and a viability, T/C [21] of 54.8%. It also gave a viability, T/C [22] of 44.8%, a viability, T/C [23] of 29.2% and a viability, T/C [24] of 20.3%.
CCC(CC)c1cc(NC2CCC(N)C2)n2nccc2n1 (centres undefined) + CCn1c(-c2cc(N3CCN(C)CC3)cnc2C(C)OC)c2c3cc(ccc31)-c1csc(n1)CC(NC(=O)C1CC1C)C(=O)N1CCCC(N1)C(=O)OCC(C)(C)C2 showed an IC50 (second compound 0.000949 µM) of 1310 nM, an IC50 (second compound 0.003 µM) of 1290 nM and an IC50 (second compound 0.00949 µM) of 1380 nM. The IC50 (second compound 0.03 µM) was 1510 nM, the IC50 (second compound 0.0949 µM) was 1270 nM and the IC50 (second compound 0.3 µM) was 1100 nM. The viability, T/C [1] was 87.7%, the viability, T/C [2] was 80% and the viability, T/C [3] was 84.6%. It also gave a viability, T/C [4] of 64.7%, a viability, T/C (second compound 0.000949 µM, first compound 3.16 µM) of 1.77% and a viability, T/C (second compound 0.000949 µM, first compound 10 µM) of 0.95%. For the same molecule, the viability, T/C [5] was 65.8%, the viability, T/C [6] was 69.4% and the viability, T/C [7] was 66.5%. The viability, T/C [8] was 64%, the viability, T/C (second compound 0.003 µM, first compound 3.16 µM) was 1.46% and the viability, T/C (second compound 0.003 µM, first compound 10 µM) was 0.76%. The viability, T/C [9] was 62%, the viability, T/C [10] was 65.9% and the viability, T/C [11] was 71.3%. The viability, T/C [12] was 76.7%, the viability, T/C (second compound 0.00949 µM, first compound 3.16 µM) was 1.47% and the viability, T/C (second compound 0.00949 µM, first compound 10 µM) was 0.9%. For the same molecule, the viability, T/C [13] was 95.4%, the viability, T/C [14] was 92.6% and the viability, T/C [15] was 99.5%. It also gave a viability, T/C [16] of 77.5%, a viability, T/C (second compound 0.03 µM, first compound 3.16 µM) of 1.04% and a viability, T/C (second compound 0.03 µM, first compound 10 µM) of 0.76%. The viability, T/C [17] was 119%, the viability, T/C [18] was 107% and the viability, T/C [19] was 102%. For the same molecule, the viability, T/C [20] was 63.6%, the viability, T/C (second compound 0.0949 µM, first compound 3.16 µM) was 1.11% and the viability, T/C (second compound 0.0949 µM, first compound 10 µM) was 0.76%. For the same molecule, the viability, T/C [21] was 94.6%, the viability, T/C [22] was 98.1% and the viability, T/C [23] was 86.2%. It also gave a viability, T/C [24] of 55.2%, a viability, T/C (second compound 0.3 µM, first compound 3.16 µM) of 0.75% and a viability, T/C (second compound 0.3 µM, first compound 10 µM) of 0.8%.
